From patent publication US7579006B2, “Method of treating immune pathologies with low dose estrogen” (Oregon Health and Science University, priority 2000, dated 2009) come the findings set out here.

The subject of one assay is DLN cells. Kind of assay: PLP 139-151 induced cytokine production by DLN cells (ELISA). The following applies: 48-72 hours after PLP 139-151 stimulation. It counts as in vivo, mice. How it is done: Cytokine detection by ELISA. DLN cells were cultured at 4×10^6/ml and stimulated with the appropriate antigen in 24 well culture plates. Cell culture supernatants were recovered between 48-72 hr and frozen at −70° C. until needed for the cytokine assay. Measurement of cytokines was performed by ELISA using cytokine specific capture and detection antibodies (Pharmingen). Standard curves for each assay were generated using recombinant mouse cytokines (Pharmingen), and the concentration of cytokines in the cell supernatants was determined by interpolation from the appropriate standard curve. IFN-γ, TNF-α and IL-12 were chosen as representative Th1 cytokines, while IL-4 and IL-10 were measured as representative Th2 cytokines.
To determine if low dose estrogen therapy altered cytokine secretion patterns, DLN cells were prepared from individual mice at the peak of clinical EAE and cytokine levels were measured 48-72 hours after in vitro stimulation with PLP 139-151. IFN-γ, IL-12, and TNF-α were used as representative Th1 cytokines while IL-4, and IL-10 were used as representative Th2 cytokines. […] Despite the lack of statistical significance, the trend towards higher Th1 and lower Th2 cytokines points towards a subtle shift in the Th1/Th2 balance. The shift can be seen more clearly when the cytokine response of each individual mouse is plotted as a ratio of IFN-γ to IL-10 (FIG. 5C). There was a marked decrease in the frequency of high Th1 responder mice in the E2 and E3 treated groups when compared to placebo animals that approached significance (p=0.09 for the 5.0 mg E3 treated mice). Additionally, no informative trends were detected in IL-4 secretion (FIG. 5D), and TNF-α secretion was very often below the limits of detection for the assay (<31.25 pg/ml). Modest changes in cytokine responses induced by low dose estrogen therapy were also observed in the B10.PL model and were consistent with the data described for the SJL model.
(ELISA stands for enzyme-linked immunosorbent assay.)

In a further assay the test system is IL-10 KO mice. Kind of assay: EAE induced with MOG 35-55 in IL-10 KO mice (clinical, histopathology). In kind it is in vivo. The settings on record: 2.5 mg pellet. How it is done: Estrogen treatment. Sixty-day release pellets containing 2.5 mg of 17β-estradiol (E2) or vehicle were implanted subcutaneously (s.c) in the scapular region behind the neck using a 12-gauge trochar as described by the manufacturer (Innovative Research of America, Sarasota, Fla.). The mice were implanted one week prior to immunization with MOG 35-55. The concentration of E2 expected in the serum is between 1,500-2,000 pg/ml, which is approximately 5 times less than the levels found during pregnancy.
Induction of EAE. C57BL/6 and cytokine deficient mice were inoculated s.c in the flanks with 0.2 ml of an emulsion containing 200 μg of MOG 35-55 in saline and an equal volume of complete Freund's Adjuvant (CFA) containing 400 μg of Mycobacterium tuberculosis H37RA (Difco Laboratories, Detroit, Mich.). Disease induction required i.v. administration of pertussis toxin on the day of immunization (25 ng/mouse) and 2 days later (67 ng/mouse). The mice were assessed daily for clinical signs of EAE according to the 7 point scale described in Example I.
Histopathology. Histopathologic assessment of spinal column section was performed essentially as described in Example I, except that sections were stained with either luxol fast blue-periodic acid schiff-hematoxylin or silver nitrate prior to analysis.
Statistical analysis. Significant differences in incidence and mortality between untreated and E2 treated mice were assessed by Chi-square analysis. Difference in onset was determined using the two-tailed Student t test. Differences in peak score and cumulative disease index (CDI) were assessed by the Mann-Whitney test. Statistical significance of the frequency of cytokine secreting cells was analyzed using Student's t test for comparisons of two means. Differences in the expression of chemokine and cytokine mRNA were also determined using the Student t test. Values of p<0.05 were considered significant.

A further assay concerns spinal cord mRNA. The assay can be described thus: RNAse protection assay of spinal cords of wildtype and cytokine knockout mice with EAE. In kind it is in vivo. As for the experimental part:
RNAse protection assay. Chemokine, chemokine receptor and cytokine mRNAs were detected by RPA essentially as described in Example III, except that analysis was performed on 20 μg total RNA.
Estrogen treatment reduces chemokine and chemokine receptor mRNA expression in the CNS. The egress of inflammatory cells into the CNS is a critical first step in the development of EAE. Chemokines are low molecular weight chemotactic molecules that are thought to play an important role in the migration and retention of immunocompetent cells in the CNS. The influence of E2 treatment on chemokine and chemokine receptor mRNA in the spinal cords of WT and cytokine deficient mice was measured using the RNAse protection assay (RPA). Total RNA was purified from spinal cords collected from mice at the peak of EAE (day 12-16 post-immunization) and chemokine/chemokine receptor specific mRNA was detected using radiolabeled riboprobes. mRNAs coding for many of the chemokine and receptor family members were detectable in the spinal cords of WT C57BL/6 mice with EAE (FIG. 18). RANTES and IP-10 were expressed at the highest levels, followed by MIP-1α, MIP-2 and MCP-1. The levels of TCA-3 mRNA were below the limits of detection for this assay. […]
The expression of cytokine mRNA in the spinal cords of mice at the peak of EAE (day 12-16 post-immunization) was measured by RPA analysis. […]

With `C[C@]12CC[C@@H]3c4ccc(O)cc4CC[C@H]3[C@@H]1CC[C@@H]2O` [17β-estradiol], in the assay on DLN cells, the “IL-10 secretion by DLN cells” value is “modest increase” and the “IL-12 secretion by DLN cells” value is recorded as “small decrease”. For the same molecule, in the assay with DLN cells (p>0.10), the “secretion of IFN-γ by DLN cells” value is on record as “consistently lower”. For the same molecule, in the assay on IL-10 KO mice (IL-10 KO), the CDI is 6.5 ± 10.9, the Incidence is 6/17, the Mortality is on record as 0/17 and the Onset came out at 22.0 ± 4.3. Moreover, in the assay with IL-10 KO mice (IL-10 KO), the “Peak Score” value was determined as 4.2 ± 0.8. Moreover, the “Inflammatory foci/section” value with IL-10 KO mice (IL-10KO, spinal cord) is reported as 0.0 ± 0.0 Foci/Section. For the same molecule, in the assay with spinal cord mRNA (C57BL/6 and cytokine knockout mice, except LT-β in IFN-γ deficient mice), the “levels of LT-β, TNF-α and IFN-γ mRNA in spinal cords” value is listed as “significantly reduced”. In addition, the “expression of all chemokine and chemokine receptor mRNA in spinal cord” value with spinal cord mRNA (WT and cytokine deficient mice, 2.5 mg pellet) is “significantly diminished or absent”.
